According to US10472352B2, “Rac inhibitors” (Geneyus LLC, priority 2017, dated 2019):

Assays:
[1] = test system: MCF-7 human breast cancer cell line; assay: Cell Viability Assay (MCF7), PrestoBlue; type: cell-based; settings: MCF7, 72 h, MCF-7 cells, three days after drug treatment
Procedure: In order to determine a compound's effect on cell viability, PrestoBlue assays were performed as previously described by Kuhn et al. (2013) with modifications. MCF-7 human breast cancer and IGR-1 human melanoma cell lines were seeded into 96-well plates 24 hours prior to addition of drug. Cells were treated with 0 to 200 μM (11 concentrations) of compound solubilized in DMSO, adjusting the final concentration of DMSO to 1% in the well. Three days after drug treatment, cell viability was measured by adding PrestoBlue (Life Technologies Ltd.; cat. No. A13262) reagent directly to wells containing media/drug to reach a final concentration of 10%. PrestoBlue is a modified molecule of the common Alamar Blue probe used to determine viability based on the ability of a cell to metabolize a nonfluorescent compound (resazurin) to a florescent molecule (resorufin). Following a 1 hour incubation period, total well fluorescence was measured using the microplate reader M1000 pro (Tecan) with excitation 560-5 nm and emission 590-5 nm. […] The percentage of living cells was then computed by comparison with control wells. Kuhn, Jonas et al., Assay and Drug Development Technologies, March 2013, Label-Free Cytotoxicity Screening Assay by Digital Holographic Microscopy.

Rac1 protein = target: T1, Rac1 protein (Homo sapiens, UniProt P63000); assay: Fluorescence Polarization Assay (Rac1 FP); type: binding; settings: 125 nM his-tagged Rac1, 12.5 nM Bodipy-TR GTPγS, 30 minutes at 37° C.
T1 construct: purchased Cytoskeleton Inc. RC01
Procedure: Direct binding of Rac1 compound inhibitors to Rac1 protein was performed using fluorescence polarization (FP). Briefly, Rac1 inhibitors were initially dissolved in DMSO and then serial drug dilutions in exchange buffer (20 mM Tris pH 7.5, 50 mM NaCl, 1 mM MgCl, 1 mM EDTA) were prepared in a flat black 96-well half-area plate (Greiner). Recombinant his-tagged Rac1 protein (Cytoskeleton Inc. Cat. # RC01) was added to the inhibitors at a final concentration of 125 nM along with 12.5 nM Bodipy-TR GTPγS (Life Technologies Inc. Cat. # G35780) in exchange buffer and incubated for 30 minutes at 37° C. in exchange buffer. After 30 minutes of incubation. FP was measured on the M1000 Pro (Tecan) fluorescent plate reader with 590 nm±5 nm excitation and 625 nm±5 nm emission spectra settings.

[2] = target: His-Rac1 / GST-PBD (PAK Binding Domain) (Homo sapiens, UniProt P63000); assay: Rac Activation AlphaScreen Assay (Rac1 AS); type: biochemical; settings: 500 nM GTPγS, 37° C., 1 hour; 'positive' = signal generated was higher than the positive control
Procedure: AlphaScreen® assays were performed in 96-well microplates in a final reaction volume of 60 μl. Recombinant His-Rac1, recombinant GST-PBD (PAK Binding Domain), donor and acceptor beads (PerkinElmer), and inhibitors were incubated in exchange buffer (20 mM Tris pH 7.5, 50 mM NaCl, 1 mM MgCl2, 1 mM EDTA, 500 nM GTPγS (guanosine 5′-[γ-thio]triphosphate)) at 37° C. Readings were performed on a Tecan M1000 pro microplate reader after 1 hour.

[3] = test system: estrogen receptor response gene (SDF) in MCF7 breast cancer cells; assay: Inhibition of Estrogen Receptor Target Gene Transcription (SDF qPCR); type: cell-based; settings: MCF7, 10 nM estradiol, 4 hours; 1 uM fulvestrant; 5 or 10 uM 0032661
Procedure: After 4 hours, RNA was harvested and converted into cDNA. qPCR analysis for SDF was performed on all samples and normalized to expression of GAPDH. The data, shown in FIG. 7, is expressed as fold change relative to SDF expression of the cFBS sample.

[4] = test system: estrogen receptor response genes Cyclin D1 and pS2 in MCF7 breast cancer cells; assay: Inhibition of Estrogen Receptor Target Gene Protein Expression (immunoblot); type: cell-based; settings: MCF7, 10 nM E2, 18 hours; 1 uM fulvestrant; 5 or 10 uM 0032661
Procedure: After 18 hours, protein was harvested. SDS-PAGE followed by immunoblotting of samples was performed using standard techniques. Protein lysates were immunoblotted for Estrogen Receptor (ER), Cyclin D1, pS2, and Actin.

[5] = test system: BT474 breast cancer cells; assay: BT474 Four (4) Day Cell Viability Assay; type: cell-based; settings: BT474, 4 days, 32661 0 μM
Procedure: BT474 breast cancer cells that are Estrogen Receptor Positive and HER2+ were grown in 5% cFBS. 5,000 cells were seeded into each well of a 96-well plate and treated with escalating doses of lapatinib, fulvestrant, and 32661.

[6] = test system: PSA in LNCaP prostate cancer cells; assay: Inhibition of Increased Protein Levels of PSA (immunoblot); type: cell-based; settings: 10 nM DHT, 18 hours, 5 uM enzalutamide, 10, 15 or 20 uM 0032661
Procedure: After 18 hours protein was harvested. SDS-PAGE followed by immunoblotting of samples was performed using standard techniques. Protein lysates were immunoblotted for the Androgen Receptor (AR), PSA, and Actin.

O=C1COCCN1c1cccc(NCCCCCCSc2ccnc3cc(C(F)(F)F)ccc23)c1 [Compound 0033306, 4-(3-{(6-{[7-(trifluoromethyl)quinolin-4-yl]sulfanyl)hexyl}amino]phenyl} morpholin-3-one] showed an IC50 [1] of 3.58 µM, an IC50 (Rac1 protein) of 1540 nM and an IC50 [2] of 8.2 µM.

With C[C@]12CC[C@@H]3c4ccc(O)cc4C[C@@H](CCCCCCCCC[S+]([O-])CCCC(F)(F)C(F)(F)F)[C@H]3[C@@H]1CC[C@@H]2O (some centres unmarked) [Fulvestrant, fulvestrant, reference compound] the “estrogen receptor target gene transcription (SDF)” value [3] was “inhibit the estrogen receptor target gene transcription”, the “protein levels of estrogen receptor target genes (Cyclin D1, pS2)” value [4] was “inhibit the increase in protein levels of estrogen receptor target genes” and the cellular viability ([5]; fulvestrant 6.9 nM, lapatinib 0.0 nM) was 94%. For the same compound, the cellular viability ([5]; fulvestrant 6.9 nM, lapatinib 6.9 nM) was 96%, the cellular viability ([5]; fulvestrant 6.9 nM, lapatinib 20.6 nM) was 96% and the cellular viability ([5]; fulvestrant 6.9 nM, lapatinib 61.7 nM) was 87%. It also gave a cellular viability ([5]; fulvestrant 6.9 nM, lapatinib 185.2 nM) of 85%, a cellular viability ([5]; fulvestrant 6.9 nM, lapatinib 555.6 nM) of 79% and a cellular viability ([5]; fulvestrant 6.9 nM, lapatinib 1666.7 nM) of 69%. The cellular viability ([5]; fulvestrant 6.9 nM, lapatinib 3333.0 nM) was 51%, the cellular viability ([5]; fulvestrant 20.6 nM, lapatinib 0.0 nM) was 94% and the cellular viability ([5]; fulvestrant 20.6 nM, lapatinib 6.9 nM) was 88%. For the same compound, the cellular viability ([5]; fulvestrant 20.6 nM, lapatinib 20.6 nM) was 88%, the cellular viability ([5]; fulvestrant 20.6 nM, lapatinib 61.7 nM) was 83% and the cellular viability ([5]; fulvestrant 20.6 nM, lapatinib 185.2 nM) was 82%. It also gave a cellular viability ([5]; fulvestrant 20.6 nM, lapatinib 555.6 nM) of 78%, a cellular viability ([5]; fulvestrant 20.6 nM, lapatinib 1666.7 nM) of 63% and a cellular viability ([5]; fulvestrant 20.6 nM, lapatinib 3333.0 nM) of 47%. The cellular viability ([5]; fulvestrant 61.7 nM, lapatinib 0.0 nM) was 91%, the cellular viability ([5]; fulvestrant 61.7 nM, lapatinib 6.9 nM) was 89% and the cellular viability ([5]; fulvestrant 61.7 nM, lapatinib 20.6 nM) was 89%. It also gave a cellular viability ([5]; fulvestrant 61.7 nM, lapatinib 61.7 nM) of 90%, a cellular viability ([5]; fulvestrant 61.7 nM, lapatinib 185.2 nM) of 88% and a cellular viability ([5]; fulvestrant 61.7 nM, lapatinib 555.6 nM) of 77%. It also gave a cellular viability ([5]; fulvestrant 61.7 nM, lapatinib 1666.7 nM) of 66%, a cellular viability ([5]; fulvestrant 61.7 nM, lapatinib 3333.0 nM) of 34% and a cellular viability ([5]; fulvestrant 185.2 nM, lapatinib 0.0 nM) of 94%. It also gave a cellular viability ([5]; fulvestrant 185.2 nM, lapatinib 6.9 nM) of 91%, a cellular viability ([5]; fulvestrant 185.2 nM, lapatinib 20.6 nM) of 91% and a cellular viability ([5]; fulvestrant 185.2 nM, lapatinib 61.7 nM) of 91%. It also gave a cellular viability ([5]; fulvestrant 185.2 nM, lapatinib 185.2 nM) of 88%, a cellular viability ([5]; fulvestrant 185.2 nM, lapatinib 555.6 nM) of 74% and a cellular viability ([5]; fulvestrant 185.2 nM, lapatinib 1666.7 nM) of 63%. The cellular viability ([5]; fulvestrant 185.2 nM, lapatinib 3333.0 nM) was 36%, the cellular viability ([5]; fulvestrant 555.6 nM, lapatinib 0.0 nM) was 87% and the cellular viability ([5]; fulvestrant 555.6 nM, lapatinib 6.9 nM) was 90%. It also gave a cellular viability ([5]; fulvestrant 555.6 nM, lapatinib 20.6 nM) of 90%, a cellular viability ([5]; fulvestrant 555.6 nM, lapatinib 61.7 nM) of 88% and a cellular viability ([5]; fulvestrant 555.6 nM, lapatinib 185.2 nM) of 82%. The cellular viability ([5]; fulvestrant 555.6 nM, lapatinib 555.6 nM) was 74%, the cellular viability ([5]; fulvestrant 555.6 nM, lapatinib 1666.7 nM) was 58% and the cellular viability ([5]; fulvestrant 555.6 nM, lapatinib 3333.0 nM) was 26%. The cellular viability ([5]; fulvestrant 1666.7 nM, lapatinib 0.0 nM) was 80%, the cellular viability ([5]; fulvestrant 1666.7 nM, lapatinib 6.9 nM) was 79% and the cellular viability ([5]; fulvestrant 1666.7 nM, lapatinib 20.6 nM) was 76%. It also gave a cellular viability ([5]; fulvestrant 1666.7 nM, lapatinib 61.7 nM) of 75%, a cellular viability ([5]; fulvestrant 1666.7 nM, lapatinib 185.2 nM) of 68% and a cellular viability ([5]; fulvestrant 1666.7 nM, lapatinib 555.6 nM) of 65%. The cellular viability ([5]; fulvestrant 1666.7 nM, lapatinib 1666.7 nM) was 47%, the cellular viability ([5]; fulvestrant 1666.7 nM, lapatinib 3333.0 nM) was 15% and the cellular viability ([5]; fulvestrant 3333.0 nM, lapatinib 0.0 nM) was 60%. The cellular viability ([5]; fulvestrant 3333.0 nM, lapatinib 6.9 nM) was 53%, the cellular viability ([5]; fulvestrant 3333.0 nM, lapatinib 20.6 nM) was 53% and the cellular viability ([5]; fulvestrant 3333.0 nM, lapatinib 61.7 nM) was 26%. The cellular viability ([5]; fulvestrant 3333.0 nM, lapatinib 185.2 nM) was 24%, the cellular viability ([5]; fulvestrant 3333.0 nM, lapatinib 555.6 nM) was 32% and the cellular viability ([5]; fulvestrant 3333.0 nM, lapatinib 1666.7 nM) was 20%. The cellular viability ([5]; fulvestrant 3333.0 nM, lapatinib 3333.0 nM) was 4%.

For CNC(=O)c1ccc(N2C(=S)N(c3ccc(C#N)c(C(F)(F)F)c3)C(=O)C2(C)C)cc1F [enzalutamide, reference compound], the “increase in protein levels of PSA” value [6] was “inhibit the increase in protein levels of PSA”.
